Results as given in a melting point compilation (Tetko et al.; mined from patent text by program, amines drawn as free bases though some values may be those of a salt).

Point of comparison: CC(C)(C)OC(=O)NCC1CCc2cc(O)ccc2C1 (stereo not given), melting point 114 °C. Against it:
- CCOc1nn(Cc2ccc(OCc3cncc(-c4ccccc4)c3)cc2)cc1CCC(=O)O — lower, 92 to 93 °C
- C#CCNC1CCc2ccccc21 (stereo not given) — lower, 39 to 41 °C
- Cc1ccc2nc(C3(c4ccc(S(N)(=O)=O)cc4)C=C(C(F)F)NN3)sc2c1 (stereo not given) — higher, 235 to 236 °C
- O=C1C2=C(CCCC2)C(=O)N1c1ccc(Cl)c(O)c1 — higher, 236 to 238 °C
- Cc1ccc(C2COc3c(C)c(C)c(N)c(C)c32)nc1 (stereo not given) — higher, 125 to 127 °C
- CC(=O)Oc1c(Cc2ccccc2)ccc2c1ccn2C — lower, 56 to 58 °C
- O=[N+]([O-])c1ccccc1Oc1ccccc1Cl — lower, 48 to 49 °C
- CC(=O)NNc1ccnc2c(NC(=O)c3c(Cl)cccc3Cl)ccc(C)c12 — higher, 230 to 234 °C
- CC(C)(C)NCC(O)CN1C(=O)NC(Cc2c[nH]c3ccccc23)C1=O (stereo not given) — higher, 190 to 191 °C
- CNC(=O)CCN1c2ccccc2N2CCc3cccc(c32)C1C (stereo not given) — higher, 143 to 145 °C
- Oc1cc(C(F)(F)F)ccc1I — lower, 36 to 38 °C
- N#CC1OC(=O)c2c(F)cccc21 (stereo not given) — higher, 117 to 120 °C
- CCOC(=O)c1c(CN=[N+]=[N-])cccc1S(=O)(=O)NC(=O)Nc1nc(OC)cc(OC)n1 — higher, 158 to 160 °C
- CN1C[C@H](CCN2CCN(C(c3ccccc3)c3ccccc3)CC2)C=C2c3cccc4[nH]cc(c34)C[C@H]21 — higher, 165 to 169 °C
- N#Cc1ccncc1OC1SCC(O)C(O)C1O (stereo not given) — higher, 157 °C
- O=C(O)c1oc(=O)c2ccccc2c1-c1ccc(F)cc1 — higher, 218 to 220 °C
- Oc1cnc2cccc(Cl)c2n1 — higher, > 250 °C
- CCCCCCCCCCC[C@@H](C[C@@H]1OC(=O)[C@H]1CCCCCC)OC(=O)CC(=O)NC(C)C — lower, 59 °C
- COc1ccc(S(=O)(=O)Nc2cc(NC(=O)c3ccc(Cl)c(Cl)c3)ccc2OC)cc1 — higher, 225 to 227 °C
- Cc1cc(N)nc(/C=C/c2nc3cc(Br)cnc3[nH]2)c1 — higher, 280 °C
- Cc1ccncc1-c1cccc(OC2SCC(O)C(O)C2O)c1 (stereo not given) — higher, 143 °C
- CCOP(=O)(CN1CCC(N(C)S(=O)(=O)c2ccc(Nc3nccc(Nc4ccc(F)c(F)c4)n3)cc2)CC1)OCC — higher, 138 °C
- O=C(Nc1cccc(-c2ccc(C(=O)O)cc2)c1)OCC1c2ccccc2-c2ccccc21 — lower, 110 to 112 °C
- N#CNC(=NC1CCN(Cc2ccccc2)CC1)NC1CCc2ccccc21 (stereo not given) — higher, 159 to 160 °C
- CCCc1c(O)c(C(C)=O)cc(C(C)=O)c1NCC — not separable, 114 to 115 °C
- Cc1ccc(-c2nc3cc([N+](=O)[O-])ccc3o2)o1 — higher, 182 to 184 °C
- CCOC(=O)Cc1ccc(NC(=O)c2cc(Cl)ccc2OC)cc1 — lower, 104 °C
- CCOC(=O)c1c[nH]c2c(C)csc2c1=O — higher, 238 to 242 °C
- COc1nc(NC(=O)NS(=O)(=O)c2cccc3cccnc23)nc(OC)n1 — higher, 151 to 153 °C
- COc1ccc2oc(-c3ccc(O)cc3C)cc2c1 — higher, 149 to 154 °C
- COC(=O)c1nc(-c2ccc(Cl)c(OC)c2F)nc(N)c1/C=C/Br — higher, 171 to 173 °C
- COC(=O)C1CCC2C3CCC4CC(O)C(O)CC4(C)C3C(NC(=O)OCC(Cl)(Cl)Cl)CC12C (stereo not given) — higher, 228 to 230 °C
- COC(=O)CON=C(C(=O)O)C(=O)CCl — higher, 127 to 128 °C
- C=CCS(=O)(=O)CC=C — lower, 63 to 65 °C
- O=C1NC(=O)c2c1c(-c1cccc(Cl)c1Cl)cc1[nH]c3ccc(O)cc3c21 — higher, 233 to 235 °C
- CC(C)(C)c1ccc(C(N)=CC#N)cc1 — lower, 74 to 75 °C
- CC(C)CCn1cc(C(=O)O)c2ccc(Cl)cc21 — lower, 53 to 55 °C
- COc1ccc(-n2c(C)nc3cnccc32)cc1OC1CCCC1 — higher, 144 to 145 °C
- O=C1c2cccc([N+](=O)[O-])c2C2CC(O)CCN12 (stereo not given) — higher, > 260 °C
- Cc1ccc(-c2nccc(-c3ccccc3)n2)cc1[N+](=O)[O-] — higher, 139 °C
- Cc1c(-c2cncnc2)ssc1=S — higher, 184 °C
- O=C(O)CN1C(=O)C2C3C=CC(CC3)C2C1=O (stereo not given) — higher, 142 °C
- CCOC(=O)c1onc(O)c1C — higher, 133 to 134 °C
- COc1ccnc(CSc2nc3c(C)c(OC(F)F)c(C)cc3[nH]2)c1OC — higher, 137 to 138 °C
- CCN1C(=O)CCCc2cc(Nc3ncc(Cl)c(Nc4ccc(N5CCOCC5)cc4OC)n3)c(OC)cc21 — higher, 212 to 214 °C
- CC(C)(C)c1cc(CCNCc2cccc(NC(=N)c3cccs3)c2)cc(C(C)(C)C)c1O — higher, 116 to 117 °C
- O=C(O)COc1ccc(-c2c(Cl)c(CN3C(=O)CCC3=O)nc3sc4c(c23)CCS(=O)C4)cc1 (stereo not given) — higher, 205 to 206 °C
- O=C(Nc1nc2c(ncn2CC(O)CF)c(=O)[nH]1)c1ccccc1 (racemic) — higher, 178 °C
- CC(C)(C)OC(=O)NNc1ccc(N)cc1 — higher, 128 °C
- O=C(O)Cn1c(=O)c(=O)[nH]c2cc(Br)c(Br)cc21 — higher, > 300 °C
- CO[C@]1(c2cnc(SC)s2)CCO[C@@H]1C (racemic) — lower, 51 to 52 °C
- O=C(Nc1cnccn1)N1CCN(c2nc(-c3cccc(F)c3)cs2)CC1 — higher, 158 to 159 °C
- CC(=O)c1nc2ccc(OC(C)C)cc2cc1O — lower, 95 to 97 °C
- COc1ccc2c(c1)[C@](C)(NC(=O)c1cc3ccccc3[nH]1)C(=O)N2c1ccc(F)cc1 — higher, 287 to 288 °C
- Cc1cc(C(=O)O)ccc1N1CCN(C(=O)OC(C)(C)C)CC1 — higher, 175 to 179 °C
- Cc1cc(OCC(F)(F)F)c(NC(=O)CN2CCN(CCSc3nc4ccccc4o3)CC2)c(OCC(F)(F)F)n1 — higher, 141 to 142 °C
- O=C1CCN(C2c3ccccc3-c3ccccc32)CC1 — higher, 135 °C
- NCCCC=CCCC(=O)O — higher, 139 to 144 °C
- COc1ccc(CNC(=O)c2ccc([N+](=O)[O-])cc2N)cc1 — higher, 129 to 131 °C
- CC(C)Nc1ccc(C2=NNC(=O)Cc3cc4c(cc32)OCO4)cc1 — higher, 144 to 146 °C
- CCCn1c(=O)c(-c2ccccc2)c2n(c1=O)CCCS2 — higher, 132 to 133 °C
- COC(=O)c1c(C)c(-c2cccnc2)n2c1CSC2 — lower, 91 °C
- CCCCc1ncc(/C=C/C=C/C(=O)O)n1Cc1ccccc1Cl — higher, 219 to 220 °C
- CCCCCCCCCCCc1nnc2n1-c1sc(CC)cc1C(c1ccc(O)cc1)=NC2 — higher, 164 to 166 °C
- CCc1ccc2c(O)ccnc2c1 — higher, 148 to 152 °C
- OCc1cc(-c2ccc(Cl)cc2)on1 — lower, 93 to 95 °C
- CNC(=O)c1cccnc1N — higher, 140 to 142 °C
- COc1ccc(-c2ccc(C(C)C)cc2)c(C(=O)Nc2ccc(N3CCN(CC(N)=O)CC3)cc2)c1 — higher, 207 to 209 °C
- CCCCOc1nc2cccc(C(=O)OC)c2n1Cc1ccc(-c2ccccc2-c2nnn[nH]2)cc1 — higher, 146 to 148 °C
- CSc1ncc(C(O)c2ccc(C)nc2)c(O)n1 (stereo not given) — higher, 140 °C
- Cn1cc(C#N)c(-c2ccc([N+](=O)[O-])o2)n1 — higher, 176 to 178 °C
- O=C1C=CC(c2cccc(F)c2)(c2cccc(F)c2)CC1 — lower, 95 °C
- COc1ccc(Cl)cc1N1C(=O)CN(C)C1=S — higher, 245 to 247 °C
- CC(C)c1cc(OCC(=O)O)cc2c1C(=O)N(COC(=O)c1c(Cl)cccc1Cl)S2(=O)=O — higher, 136 to 137 °C
- CC(C)(C)NNC(=O)c1ccccc1CO — higher, 116 to 118 °C
- CC(CCCc1ccc(F)cc1)c1cc(NS(C)(=O)=O)c2c(c1)OC(C)(C)c1ccncc1-2 (stereo not given) — higher, 208 to 209 °C
- N#Cc1cnn2c1N(C(=O)CN1CCC(Cc3ccccc3)CC1)CC=C2c1cc(Cl)ccc1Cl — higher, 157 to 158 °C
- CC(C)(C)C(=O)NC1CCC(c2cc(Nc3cccc(C(F)(F)F)c3)n[nH]2)C1 (stereo not given) — higher, 249 °C
- Cc1cccc(Nc2cc(Nc3cccc(O)c3)ncn2)c1 — higher, 188 to 189 °C
- COc1cc(Nc2c(C#N)cnc3cc(F)c(OCCN4CCOCC4)cc23)c(Cl)cc1Cl — higher, 166 to 168 °C
- COc1cc(C(=O)OCCN(CCOC(=O)c2cc(OC)c(OC)c(OC)c2)CCS(=O)(=O)O)cc(OC)c1OC — higher, 178 to 182 °C
- c1ncn(Cc2nc(-c3ccc4c(c3)OCO4)c3cc4c(cc3n2)OCO4)n1 — higher, 195 to 198 °C
- Cc1ccccc1-c1ccc(C(=O)O)cc1C — higher, 140 to 143 °C
- CN(C)Cc1nc2cccnc2[nH]1 — higher, 123 to 125 °C
- Cc1ccccc1C1=C(CC(=O)Nc2c(C(C)C)cccc2C(C)C)CN(C)c2ccc(Cl)cc21 — higher, 160 °C
- O=C(Nc1cccnc1)N1CCc2cc(-c3ccccc3)ccc21 — higher, 241 to 242 °C
- CCOC(=O)N=NC(=O)OCC — higher, 120 to 121 °C
- CNNc1ncn(-c2ccccc2)c(=O)n1 — higher, 219 °C
- Cc1ccc(-n2nc3c4cc(Br)ccc4[nH]c(=O)n3c2=O)cc1 — higher, 369 °C
- COc1ccc2cc([C@H](C)C(=O)OCCO)ccc2c1 — lower, 72 to 73 °C
- COc1ccccc1O[C@@H]1CN(Cc2ccccc2)C[C@H]1O (relative stereo) — higher, 115 to 117 °C
- O=C(O)CCCCCCCCOc1ccccc1 — lower, 66.5 to 67.5 °C
- CC(C)c1nn(-c2ccccc2)c(-c2ccc(F)cc2)c1C=O — lower, 110 to 112 °C
- COC1=C(OC)C(=O)C(CCCCCCCCCO)=C(C)C1=O — lower, 45 °C
- Cc1ccc(-c2ccc3c(c2)C=C(C(=O)Nc2ccc(CN4CCCCC4)cc2)CC(C)O3)cc1 (stereo not given) — higher, 175 to 176 °C
- Cc1cc(=O)[nH]nc1-c1ccc(-c2ccc(F)cc2)cc1 — higher, 245 to 247 °C
- O=S(=O)(c1ccc(Cl)cc1)C(CCc1ccccc1)c1cc(F)ccc1F (stereo not given) — lower, 111 to 113 °C
- CC(/C=C/c1c(C)sc(C)c1C)=C(F)\C=C\C(C)=C\C(=O)O — higher, 217 to 223 °C
- COC(OC)c1cc(O)cc(Cl)c1 — higher, 153 °C
- COc1cccc(CCN2C(=O)c3ccccc3C2(O)c2cccnc2)c1 (stereo not given) — lower, 97 °C
- COc1cccc2c1nc(-c1c(F)cccc1F)n2Cc1ccccc1 — higher, 139 to 141 °C
- CCCc1nc2c(N)nc3cc(OCCCN)ccc3c2n1CC(C)C — higher, 173 to 174 °C
- CCCCC[C@H]1CC[C@H](c2ccc(-c3ccc(CCc4ccc(OCC)cc4)cc3)cc2F)CC1 — higher, 133 °C
- C[C@H](N)C(=O)N[C@@H](C)C(=O)NC(C)(Cc1ccccc1)c1ccccc1 (stereo not given in full) — higher, 161 to 162 °C
